Active and inactive are the calls of the source.
How the values were obtained:
Cannabinoid receptor 1 [1] = target: T1, Cannabinoid receptor 1 (Homo sapiens, UniProt P21554); experiment: SAR analysis of antagonists of the Cannabinoid Receptor 1 using an Image-Based Assay - Set 3. [Related pubchem assays (depositor defined):AID1961, AID1965]; format: functional
[2] = target: G-protein coupled receptor 55 (Homo sapiens, UniProt Q9Y2T6); experiment: SAR analysis of selective Agonists of GPR55 using an Image-Based Assay - Set 2. [Related pubchem assays (depositor defined):AID1961, AID1965]; format: functional
Sequence of G-protein coupled receptor 55 (Q9Y2T6 whole entry): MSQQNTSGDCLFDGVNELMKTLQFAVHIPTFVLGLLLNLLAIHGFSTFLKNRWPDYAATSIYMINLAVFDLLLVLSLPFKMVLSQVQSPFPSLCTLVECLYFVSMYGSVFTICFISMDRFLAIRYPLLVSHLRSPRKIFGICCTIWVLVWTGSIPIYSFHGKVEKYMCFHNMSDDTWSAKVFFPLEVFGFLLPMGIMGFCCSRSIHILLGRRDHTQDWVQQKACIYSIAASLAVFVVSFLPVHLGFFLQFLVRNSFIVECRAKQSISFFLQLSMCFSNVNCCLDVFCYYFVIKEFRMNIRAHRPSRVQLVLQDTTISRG

Cannabinoid receptor 1 [3] = target: T1, Cannabinoid receptor 1; experiment: SAR analysis of agonists of the Cannabinoid Receptor 1 using an Image-Based Assay - Set 3. [Related pubchem assays (depositor defined):AID1961, AID1965]; format: functional
Cannabinoid receptor 2 [4] = target: T2, Cannabinoid receptor 2 (Homo sapiens, UniProt P34972); experiment: SAR analysis of agonists of the Cannabinoid Receptor 2 using an Image-Based Assay - Set 2. [Related pubchem assays (depositor defined):AID1961, AID1965]; format: functional
T2 sequence (P34972 whole entry): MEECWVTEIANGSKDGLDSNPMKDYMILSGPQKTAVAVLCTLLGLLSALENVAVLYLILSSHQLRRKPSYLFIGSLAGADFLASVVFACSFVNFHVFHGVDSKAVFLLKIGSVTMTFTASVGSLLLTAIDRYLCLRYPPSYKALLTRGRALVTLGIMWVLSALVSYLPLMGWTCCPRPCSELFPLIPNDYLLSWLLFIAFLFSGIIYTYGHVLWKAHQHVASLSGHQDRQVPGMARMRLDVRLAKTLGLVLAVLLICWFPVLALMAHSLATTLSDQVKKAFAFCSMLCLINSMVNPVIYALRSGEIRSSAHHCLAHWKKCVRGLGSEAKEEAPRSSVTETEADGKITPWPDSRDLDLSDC

Cannabinoid receptor 2 [5] = target: T2, Cannabinoid receptor 2; experiment: SAR analysis of antagonists of the Cannabinoid Receptor 2 using an Image-Based Assay - Set 2. [Related pubchem assays (depositor defined):AID1961, AID1965]; format: functional
[6] = target: T3, G-protein coupled receptor 35 (Homo sapiens, UniProt Q9HC97); experiment: SAR analysis of Antagonists of the GPR35 Receptor using an Image-Based Assay - Set 4. [Related pubchem assays (depositor defined):[…]]; format: functional
T3 sequence (Q9HC97 whole entry): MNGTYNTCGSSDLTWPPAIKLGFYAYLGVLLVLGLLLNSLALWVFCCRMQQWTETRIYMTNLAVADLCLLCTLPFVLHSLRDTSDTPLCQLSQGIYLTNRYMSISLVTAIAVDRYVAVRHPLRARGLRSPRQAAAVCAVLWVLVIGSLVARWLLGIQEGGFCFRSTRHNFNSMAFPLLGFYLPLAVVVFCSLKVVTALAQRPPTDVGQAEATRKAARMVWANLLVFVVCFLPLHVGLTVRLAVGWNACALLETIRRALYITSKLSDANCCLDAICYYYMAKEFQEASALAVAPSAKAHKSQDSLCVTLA

[7] = target: T3, G-protein coupled receptor 35; experiment: SAR analysis of Agonists of the GPR35 Receptor using an Image-Based Assay - Set 3. [Related pubchem assays (depositor defined):AID1961, AID1965]; format: functional
T-cell = experiment: loss of vesicle association with mouse CD8+ T cells – mouse 2C CD8+ T cells, flow cytometry, dose response (AID 485284); format: functional
[8] = Luminescence Cell-Based Dose Response HTS to Identify Activators of Luciferase Translation or Activity in H4 […] Cells. [Related pubchem assays: 1829 (Project Summary), 1814 (Primary HTS)]; format: functional
[9] = target: Sphingosine 1-phosphate receptor 4 (Homo sapiens, UniProt O95977); experiment: Late-stage fluorescence dose response cell-based assay to identify agonists of the Sphingosine 1-Phosphate Receptor 4 (S1P4): purchased compounds EC50. [Related pubchem assays (depositor defined):AID1509, AID1523, AID1563, AID1686, AID1701, AID1801]; format: functional
Sequence of Sphingosine 1-phosphate receptor 4 (O95977 whole entry): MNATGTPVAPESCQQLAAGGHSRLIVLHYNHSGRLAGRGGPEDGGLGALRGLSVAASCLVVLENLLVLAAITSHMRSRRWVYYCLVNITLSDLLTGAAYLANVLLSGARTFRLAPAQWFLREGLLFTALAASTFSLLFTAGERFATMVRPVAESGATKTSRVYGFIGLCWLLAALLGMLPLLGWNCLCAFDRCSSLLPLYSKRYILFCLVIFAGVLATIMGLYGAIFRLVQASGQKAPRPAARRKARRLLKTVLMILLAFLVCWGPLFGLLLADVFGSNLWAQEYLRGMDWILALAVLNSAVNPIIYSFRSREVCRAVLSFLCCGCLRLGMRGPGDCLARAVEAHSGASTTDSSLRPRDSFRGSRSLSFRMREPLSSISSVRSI

[10] = Luminescence Cell-Based Dose Confirmation HTS to Identify Activators of 5'UTR Stem-Loop Driven Alpha-Synuclein mRNA Translation in H4 Neuroglioblastoma Cells. [Related pubchem assays: 1829 (Project Summary), 1814 (Primary HTS)]; format: functional
[11] = target: T4, Kappa-type opioid receptor (Homo sapiens, UniProt P41145); experiment: SAR analysis of small molecule antagonists of the kappa opioid receptor via a luminescent beta-arrestin assay - Set 6. [Related pubchem assays (depositor defined):AID1777, AID1778, AID1785, AID1786, AID1966, AID2133, AID2136, AID2285]; format: functional
T4 sequence (P41145 whole entry): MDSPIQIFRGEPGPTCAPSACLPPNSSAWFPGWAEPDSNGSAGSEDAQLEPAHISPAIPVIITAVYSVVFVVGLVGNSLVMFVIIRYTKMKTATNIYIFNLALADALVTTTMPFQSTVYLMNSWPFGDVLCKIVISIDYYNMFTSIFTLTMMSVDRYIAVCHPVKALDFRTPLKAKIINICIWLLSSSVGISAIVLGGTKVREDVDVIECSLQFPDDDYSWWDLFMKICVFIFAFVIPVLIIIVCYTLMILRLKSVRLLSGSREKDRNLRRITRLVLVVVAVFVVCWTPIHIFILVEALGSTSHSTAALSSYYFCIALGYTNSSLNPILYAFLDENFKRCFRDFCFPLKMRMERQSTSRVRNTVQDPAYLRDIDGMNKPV

[12] = target: T4, Kappa-type opioid receptor; experiment: SAR analysis of Antagonists of the Kappa Opioid Receptor (KOR) using an Image-Based Assay - Set 4. [Related pubchem assays (depositor defined):AID1777, AID1785]; format: functional
[13] = target: T4, Kappa-type opioid receptor; experiment: SAR analysis of small molecule antagonists of the kappa opioid receptor via a luminescent beta-arrestin assay - Set 4. [Related pubchem assays (depositor defined):AID1777, AID1778, AID1785, AID1786, AID1966, AID2133, AID2136, AID2285]; format: functional
Mu-type opioid receptor [14] = target: T5, Mu-type opioid receptor (Homo sapiens, UniProt P35372); experiment: SAR Analysis of Antagonists of the MOR Receptor using an Image-Based Assay - Set 3. [Related pubchem assays (depositor defined):AID1777, AID1785, AID1786, AID1966, AID2133, AID2136, AID2284, AID2285, AID2420]; format: functional
T5 sequence (P35372 whole entry): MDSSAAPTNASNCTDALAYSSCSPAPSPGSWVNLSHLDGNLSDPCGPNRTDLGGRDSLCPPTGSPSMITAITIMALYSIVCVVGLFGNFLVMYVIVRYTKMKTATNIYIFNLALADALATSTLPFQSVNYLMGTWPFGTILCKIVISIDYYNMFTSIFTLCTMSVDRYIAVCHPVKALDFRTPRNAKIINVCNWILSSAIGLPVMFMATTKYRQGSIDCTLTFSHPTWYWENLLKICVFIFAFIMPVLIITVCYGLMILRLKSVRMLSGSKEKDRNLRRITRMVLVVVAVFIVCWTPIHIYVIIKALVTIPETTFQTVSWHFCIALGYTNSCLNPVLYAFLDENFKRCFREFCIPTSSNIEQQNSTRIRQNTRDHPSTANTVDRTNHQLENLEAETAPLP

[15] = target: T6, Delta-type opioid receptor (Homo sapiens, UniProt P41143); experiment: SAR Analysis of Antagonists of the DOR Receptor using an Image-Based Assay - Set 3. [Related pubchem assays (depositor defined):AID1777, AID1785]; format: functional
T6 sequence (P41143 whole entry): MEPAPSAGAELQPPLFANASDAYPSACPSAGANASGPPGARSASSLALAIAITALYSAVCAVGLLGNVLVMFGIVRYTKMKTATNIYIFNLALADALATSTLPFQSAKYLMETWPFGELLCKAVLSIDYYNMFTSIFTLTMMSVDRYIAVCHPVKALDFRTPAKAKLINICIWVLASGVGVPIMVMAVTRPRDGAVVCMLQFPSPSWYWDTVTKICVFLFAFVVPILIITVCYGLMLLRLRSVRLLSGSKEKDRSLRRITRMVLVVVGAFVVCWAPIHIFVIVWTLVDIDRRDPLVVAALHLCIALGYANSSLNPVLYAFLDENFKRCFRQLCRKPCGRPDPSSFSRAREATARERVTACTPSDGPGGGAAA

[16] = target: Melanin-concentrating hormone receptor 1 (Homo sapiens, UniProt Q99705); experiment: Late-stage fluorescence-based counterscreen for antagonists of the G-protein coupled receptor 7 (GPR7): cell-based dose response assay to identify antagonists of the melanin-concentrating hormone receptor 1 (MCHR1). [Related pubchem assays (depositor defined):AID1861, AID1880, AID1952, AID2148, AID2251, AID2257, AID485339]; format: functional;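 further: stimulated with 30 nM MCH peptide agonist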
Sequence of Melanin-concentrating hormone receptor 1 (Q99705 whole entry): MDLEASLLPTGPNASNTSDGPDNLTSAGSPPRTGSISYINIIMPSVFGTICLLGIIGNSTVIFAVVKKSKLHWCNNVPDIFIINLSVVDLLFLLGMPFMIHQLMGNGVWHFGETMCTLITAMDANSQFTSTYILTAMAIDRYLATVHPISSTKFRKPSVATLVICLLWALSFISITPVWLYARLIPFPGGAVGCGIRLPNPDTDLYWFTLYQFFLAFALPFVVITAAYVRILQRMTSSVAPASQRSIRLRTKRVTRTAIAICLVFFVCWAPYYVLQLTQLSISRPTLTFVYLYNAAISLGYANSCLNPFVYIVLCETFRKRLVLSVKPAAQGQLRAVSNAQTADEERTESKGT

Mu-type opioid receptor [17] = target: T5, Mu-type opioid receptor; experiment: HTS Image-Based Screen for Agonists of the MOR Receptor. [Related pubchem assays (depositor defined):AID1777, AID1785, AID1786, AID2133]; format: functional
Vero [18] = experiment: mammalian cell viability reduction – secondary assay, cytotoxicity control for West Nile virus antiviral project, dose response (AID 1650); format: functional; settings: Chlorocebus sabaeus
[19] = luciferase reporter signal suppression in cells – H4 neuroglioma cells, luminescence, dose response (AID 1990); format: functional, cell-based
[20] = target: T4, Kappa-type opioid receptor; format: functional
[21] = alpha-synuclein stem-loop luciferase translation blockers – H4 neuroglioma cells, luminescence, confirmation (AID 1988); format: functional, cell-based
[22] = Luminescence Cell-Based Dose Response HTS to Identify Inhibitors of 5'UTR Stem-Loop Driven Prion Protein mRNA Translation in H4 Neuroglioblastoma Cells. [Related pubchem assays: 1827 (Project Summary), 1813 (Primary HTS)]; format: functional
Beta-galactosidase [23] = target: T7, Beta-galactosidase (Escherichia coli, UniProt Q8VNN2); format: functional
T7 sequence (Q8VNN2 whole entry): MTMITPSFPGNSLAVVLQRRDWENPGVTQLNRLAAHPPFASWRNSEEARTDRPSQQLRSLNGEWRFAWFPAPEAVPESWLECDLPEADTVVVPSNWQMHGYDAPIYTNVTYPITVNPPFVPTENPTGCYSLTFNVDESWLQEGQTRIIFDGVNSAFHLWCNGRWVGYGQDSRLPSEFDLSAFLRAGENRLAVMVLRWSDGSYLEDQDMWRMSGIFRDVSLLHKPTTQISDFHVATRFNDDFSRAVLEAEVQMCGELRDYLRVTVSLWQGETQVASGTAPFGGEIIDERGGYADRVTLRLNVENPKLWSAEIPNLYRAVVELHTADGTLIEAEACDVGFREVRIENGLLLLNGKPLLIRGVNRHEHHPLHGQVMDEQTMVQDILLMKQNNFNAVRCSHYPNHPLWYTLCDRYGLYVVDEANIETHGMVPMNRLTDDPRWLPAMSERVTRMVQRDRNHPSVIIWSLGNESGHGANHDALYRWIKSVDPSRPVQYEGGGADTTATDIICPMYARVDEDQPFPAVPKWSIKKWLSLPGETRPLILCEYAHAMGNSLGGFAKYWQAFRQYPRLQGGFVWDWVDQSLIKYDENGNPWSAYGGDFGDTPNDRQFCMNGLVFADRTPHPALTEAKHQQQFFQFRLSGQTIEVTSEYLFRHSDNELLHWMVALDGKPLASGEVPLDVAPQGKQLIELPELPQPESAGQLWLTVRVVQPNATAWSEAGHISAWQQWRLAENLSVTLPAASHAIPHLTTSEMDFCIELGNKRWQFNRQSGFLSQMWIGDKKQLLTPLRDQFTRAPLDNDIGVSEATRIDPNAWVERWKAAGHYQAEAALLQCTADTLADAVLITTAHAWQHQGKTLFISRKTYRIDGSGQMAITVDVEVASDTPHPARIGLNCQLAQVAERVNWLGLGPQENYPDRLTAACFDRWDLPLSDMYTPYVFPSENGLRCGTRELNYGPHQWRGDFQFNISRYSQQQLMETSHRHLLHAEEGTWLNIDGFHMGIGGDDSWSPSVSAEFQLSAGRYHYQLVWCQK

[24] = target: T6, Delta-type opioid receptor; experiment: HTS Image-Based Screen for Agonists of the DOR Receptor. [Related pubchem assays (depositor defined):AID1777, AID1786, AID2133]; format: functional
[25] = target: E3 ubiquitin-protein ligase Mdm2/Protein Mdm4 (Homo sapiens, UniProt O15151+Q00987); experiment: disruption of Mdm2/MdmX protein binding – luminescence detection, dose response (AID 504593); format: functional
[26] = target: T6, Delta-type opioid receptor; experiment: HTS Image-Based Screen for Antagonists of the DOR Receptor. [Related pubchem assays (depositor defined):AID1777, AID1785, AID1786, AID2133]; format: functional
[27] = target: T4, Kappa-type opioid receptor; format: functional; remark: listed apart in the source
[28] = target: C-C chemokine receptor type 6 (Homo sapiens, UniProt P51684); experiment: antagonism of CCR6 beta-arrestin recruitment – cell-based, luminescent beta-arrestin readout, dose response (AID 504728); format: functional
Sequence of C-C chemokine receptor type 6 (P51684 whole entry): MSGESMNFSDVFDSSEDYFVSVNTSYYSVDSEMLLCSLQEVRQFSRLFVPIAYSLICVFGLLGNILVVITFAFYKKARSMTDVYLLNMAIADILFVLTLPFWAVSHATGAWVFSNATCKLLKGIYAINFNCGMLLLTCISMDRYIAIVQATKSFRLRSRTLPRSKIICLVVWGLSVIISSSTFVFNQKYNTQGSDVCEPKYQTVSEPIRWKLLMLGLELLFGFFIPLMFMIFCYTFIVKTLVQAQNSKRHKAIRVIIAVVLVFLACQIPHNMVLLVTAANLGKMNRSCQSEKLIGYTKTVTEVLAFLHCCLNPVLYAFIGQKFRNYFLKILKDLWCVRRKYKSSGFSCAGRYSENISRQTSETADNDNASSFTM

Beta-galactosidase [29] = target: T7, Beta-galactosidase; experiment: detection-enzyme interference by beta-gal modulators – biochemical, E. coli enzyme, set 3, artefact control for CCR6 antagonist project, dose response (AID 504712); format: functional
cells [30] = format: functional, cell-based
cells [31] = format: functional, cell-based; remark: listed apart in the source
Vero [32] = experiment: cells; format: functional; settings: Chlorocebus sabaeus

T1 sequence (P21554 whole entry): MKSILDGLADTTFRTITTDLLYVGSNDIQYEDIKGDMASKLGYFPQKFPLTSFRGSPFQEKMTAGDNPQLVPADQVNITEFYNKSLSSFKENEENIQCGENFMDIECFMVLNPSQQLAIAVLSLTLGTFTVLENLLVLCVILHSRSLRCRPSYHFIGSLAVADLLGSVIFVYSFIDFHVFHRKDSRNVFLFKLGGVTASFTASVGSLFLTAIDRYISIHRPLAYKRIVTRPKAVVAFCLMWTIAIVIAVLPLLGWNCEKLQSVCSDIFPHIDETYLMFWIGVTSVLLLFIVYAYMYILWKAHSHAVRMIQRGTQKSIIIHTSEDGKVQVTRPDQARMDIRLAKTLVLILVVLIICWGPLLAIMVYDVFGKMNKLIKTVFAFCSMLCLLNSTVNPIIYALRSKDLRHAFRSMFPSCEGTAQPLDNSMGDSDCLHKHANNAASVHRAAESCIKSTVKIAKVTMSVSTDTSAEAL

Question: What does the source list for COc1ccc(S(=O)(=O)N2CCOCC2)cc1NC(=O)c1ccc(Cl)cc1?
Answer: IC50 (Cannabinoid receptor 1 [1]): > 32 µM (inactive); EC50 [2]: 0.138 µM (active); EC50 (Cannabinoid receptor 1 [3]): 5.08 µM (active); EC50 (Cannabinoid receptor 2 [4]): > 32 µM (inactive); IC50 (Cannabinoid receptor 2 [5]): > 32 µM (inactive); IC50 [6]: 12.3 µM (inactive); EC50 [7]: > 32 µM (inactive)

Question: Which EC50 (T-cell) does the source give for Cc1ccc(O)c(CCc2ccccc2)n1 here?
Answer: 9.49 µM (active)

Question: Which EC50 [8] does the source give for Cc1ccc(OCCOc2cccc(Br)c2)c([N+](=O)[O-])n1 here?
Answer: 27.6 µM (active)

Question: And the EC50 [9]?
Answer: > 50 µM (inactive)

Question: And the EC50 [10]?
Answer: 5.57 µM (active)

Question: For CC(C)N(CCNC(=O)c1ccc(CNS(=O)(=O)c2ccc3ccccc3c2)cc1)Cc1ccccc1, which IC50 [11] is on record?
Answer: 5.52 µM (active)

Question: What about the IC50 [12] of the same molecule?
Answer: 0.16 µM (active)

Question: What about the IC50 [13] of the same molecule?
Answer: 2.33 µM (active)

Question: What about the IC50 (Mu-type opioid receptor [14]) of the same molecule?
Answer: > 32 µM (inactive)

Question: And the IC50 [15]?
Answer: 31.3 µM (inactive)

Question: Which IC50 [16] does the source give for O=C(C1CCCCN1Cc1ccccc1)N1CCN(c2ccc([N+](=O)[O-])cc2)CC1 (stereo not drawn) here?
Answer: 11.3 µM (inactive)

Question: Which EC50 (Mu-type opioid receptor [17]) does the source give for O=[N+]([O-])c1ccccc1S(=O)(=O)Nc1cccc2cccnc12 here?
Answer: > 32 µM (inactive)

Question: What about the CC50 (Vero [18]) of the same molecule?
Answer: 8.6 µM (active)

Question: And the EC50 [19]?
Answer: 14.1 µM (active)

Question: What about the IC50 [20] of the same molecule?
Answer: > 32 µM

Question: And the EC50 [21]?
Answer: > 120 µM (not active)

Question: And the EC50 [22]?
Answer: 11.6 µM (active)

Question: What about the EC50 (Beta-galactosidase [23]) of the same molecule?
Answer: > 31.5 µM (inactive)

Question: What about the EC50 [24] of the same molecule?
Answer: > 32 µM (inactive)

Question: And the IC50 [25]?
Answer: 3.73 µM (active)

Question: What about the IC50 [26] of the same molecule?
Answer: > 32 µM (inactive)

Question: What about the IC50 [27] of the same molecule?
Answer: 7.84 µM (active)

Question: With Cc1cc(C)nc(N/N=C/C2=C(O)CC(c3ccc(F)cc3)CC2=O)n1 (stereo not drawn) as the molecule, how does the IC50 [28] read?
Answer: > 66.6 µM (inactive)

Question: What about the IC50 (Beta-galactosidase [29]) of the same molecule?
Answer: > 66.6 µM (inactive)

Question: What about the EC50 (cells [30]) of the same molecule?
Answer: > 350 µM (not active)

Question: What about the EC50 (cells [31]) of the same molecule?
Answer: 15.9 µM (active)

Question: And the CC50 (Vero [32])?
Answer: > 25 µM (active)

Source: ChEMBL document CHEMBL1201862, “PubChem BioAssay data set” (2004)
